In US20230073777A1, “CYCLIC-AMP RESPONSE ELEMENT BINDING PROTEIN (CBP) AND/OR ADENOVIRAL E1A BINDING PROTEIN OF 300 KDA (P300) DEGRADATION COMPOUNDS AND METHODS OF USE” (CULLGEN (SHANGHAI), INC., priority 2019, published 2023):
pIC50: −log10 of the molar value. Read-outs that look alike come from different tables or passages of the source.

Columns and labels:
LNCaP cells = experiment: LNCaP cell viability assay (CellTiter-Glo); format: cell-based; details: Homo sapiens, 72 h; LNCaP prostate cancer cell viability inhibition, 3 days, CellTiter-Glo (Table 3)
In short: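 LNCaP cells, 5000/well, exposed to compounds in 12-point 3-fold serial dilution (top 10 μM) for 3 days. Viability by CellTiter-Glo luminescence, normalized to untreated cells; IC50 by least-squares nonlinear regression.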

P300 = P300 (Homo sapiens, UniProt Q09472); experiment: Immunoblotting of P300 protein levels in LNCaP or 22RV1 cells; format: cell-based; design: LNCaP or 22RV1 cells that express CBP/P300 proteins were treated with GNE-781 or the bivalent compounds; endogenous in cells; host or cells: LNCaP (clone FGC) or 22RV1 cells; details: read-out: Degradation (10 nM)
Sequence of P300 (Q09472 whole entry): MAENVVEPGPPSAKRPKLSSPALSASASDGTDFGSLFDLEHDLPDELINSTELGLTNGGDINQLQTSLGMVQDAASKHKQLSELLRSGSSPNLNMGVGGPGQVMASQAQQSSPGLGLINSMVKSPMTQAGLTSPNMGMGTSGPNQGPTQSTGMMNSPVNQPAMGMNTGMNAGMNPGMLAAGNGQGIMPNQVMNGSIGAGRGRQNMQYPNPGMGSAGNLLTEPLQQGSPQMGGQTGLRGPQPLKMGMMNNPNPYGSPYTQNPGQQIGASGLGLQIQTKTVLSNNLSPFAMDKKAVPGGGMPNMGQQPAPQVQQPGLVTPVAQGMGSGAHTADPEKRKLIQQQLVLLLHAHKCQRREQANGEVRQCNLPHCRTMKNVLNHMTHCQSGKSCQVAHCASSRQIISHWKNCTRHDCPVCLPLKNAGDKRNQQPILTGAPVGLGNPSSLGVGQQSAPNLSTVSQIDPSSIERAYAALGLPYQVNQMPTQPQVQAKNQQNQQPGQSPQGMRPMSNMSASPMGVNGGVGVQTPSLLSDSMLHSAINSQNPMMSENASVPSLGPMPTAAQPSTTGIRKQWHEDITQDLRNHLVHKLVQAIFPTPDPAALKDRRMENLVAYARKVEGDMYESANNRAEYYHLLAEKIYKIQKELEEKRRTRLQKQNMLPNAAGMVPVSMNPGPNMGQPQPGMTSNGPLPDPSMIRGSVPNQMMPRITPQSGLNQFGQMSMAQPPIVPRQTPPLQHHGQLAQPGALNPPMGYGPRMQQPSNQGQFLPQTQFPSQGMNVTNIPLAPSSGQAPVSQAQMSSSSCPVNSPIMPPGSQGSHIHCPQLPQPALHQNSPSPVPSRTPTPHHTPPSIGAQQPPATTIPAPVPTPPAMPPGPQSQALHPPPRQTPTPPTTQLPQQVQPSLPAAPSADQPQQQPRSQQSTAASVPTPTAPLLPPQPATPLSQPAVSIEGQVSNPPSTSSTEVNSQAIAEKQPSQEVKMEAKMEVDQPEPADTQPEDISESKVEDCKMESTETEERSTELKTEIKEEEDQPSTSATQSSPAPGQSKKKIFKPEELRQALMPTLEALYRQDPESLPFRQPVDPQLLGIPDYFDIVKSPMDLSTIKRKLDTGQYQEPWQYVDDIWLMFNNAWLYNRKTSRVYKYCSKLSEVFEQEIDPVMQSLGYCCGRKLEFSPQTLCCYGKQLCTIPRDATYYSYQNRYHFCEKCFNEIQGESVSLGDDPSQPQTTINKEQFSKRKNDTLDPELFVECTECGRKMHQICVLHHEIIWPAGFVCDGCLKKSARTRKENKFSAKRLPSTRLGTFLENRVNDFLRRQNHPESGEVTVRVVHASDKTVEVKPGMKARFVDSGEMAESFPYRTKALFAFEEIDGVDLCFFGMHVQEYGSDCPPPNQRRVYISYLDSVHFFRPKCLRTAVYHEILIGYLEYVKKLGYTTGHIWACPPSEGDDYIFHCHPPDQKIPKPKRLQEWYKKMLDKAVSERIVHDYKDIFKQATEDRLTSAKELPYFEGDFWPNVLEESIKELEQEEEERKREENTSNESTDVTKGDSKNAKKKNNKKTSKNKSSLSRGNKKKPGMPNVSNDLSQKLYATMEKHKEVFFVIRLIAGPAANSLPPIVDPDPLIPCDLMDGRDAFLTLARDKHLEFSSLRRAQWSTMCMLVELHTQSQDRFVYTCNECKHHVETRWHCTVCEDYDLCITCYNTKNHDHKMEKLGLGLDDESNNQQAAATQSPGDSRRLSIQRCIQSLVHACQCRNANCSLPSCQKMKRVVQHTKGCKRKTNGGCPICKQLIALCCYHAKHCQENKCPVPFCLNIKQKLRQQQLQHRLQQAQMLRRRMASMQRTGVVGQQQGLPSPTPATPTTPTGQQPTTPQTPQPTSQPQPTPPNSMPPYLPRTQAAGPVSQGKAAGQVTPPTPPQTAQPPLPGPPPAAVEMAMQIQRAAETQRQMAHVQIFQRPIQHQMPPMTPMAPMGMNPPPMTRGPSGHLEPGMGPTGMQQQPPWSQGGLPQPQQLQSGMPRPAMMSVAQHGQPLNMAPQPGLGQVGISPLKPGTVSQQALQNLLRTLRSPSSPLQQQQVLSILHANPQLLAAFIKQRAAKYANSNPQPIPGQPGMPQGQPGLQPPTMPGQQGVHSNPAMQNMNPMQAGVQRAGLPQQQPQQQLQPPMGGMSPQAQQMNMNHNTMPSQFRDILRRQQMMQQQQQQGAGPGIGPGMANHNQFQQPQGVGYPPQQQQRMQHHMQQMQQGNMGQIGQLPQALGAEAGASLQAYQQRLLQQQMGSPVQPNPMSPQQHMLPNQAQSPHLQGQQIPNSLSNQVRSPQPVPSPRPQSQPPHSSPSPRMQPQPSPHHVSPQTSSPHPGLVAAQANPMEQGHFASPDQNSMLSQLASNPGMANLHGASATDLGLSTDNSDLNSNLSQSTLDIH
In short: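 LNCaP or 22RV1 cells treated with compounds for indicated hours, DMSO as negative control. RIPA lysates resolved by SDS-PAGE and immunoblotted for P300 or CBP, tubulin or vinculin as loading control; chemiluminescent bands quantitated.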

[1] = percentage of inhibition of p300 at 10 nM (Table 3)

Structure (SMILES)	pIC50 (LNCaP cells)	inhibition at 0.01 µM (P300; [1]) [%]	inhibition at 0.01 µM (P300) [%]
CC(=O)N1CCc2c(c(N3CCCc4cc(-c5cnn(C)c5)c(C(F)F)cc43)nn2C2CCN(C(=O)CCC3CN(Cc4cccc5c4C(=O)N(C4CCC(=O)NC4=O)C5=O)C3)CC2)C1 (centres unmarked) [P-156, 4-((3-(3-(4-(5-Acetyl-3-(7-(difluoromethyl)-6-(1-methyl-1H-pyrazol-4-yl)-3,4-dihydroquinolin-1(2H)-yl)-4,5,6,7-tetrahydro-1H-pyrazolo[4,3-c]pyridin-1-yl)piperidin-1-yl)-3-oxopropyl)azetidin-1-yl)methyl)-2-(2,6-dioxopiperidin-3-yl)isoindoline-1,3-dione]	< 6.30	< 20	
CC(=O)N1CCc2c(c(N3CCCc4cc(-c5cnn(C)c5)c(C(F)F)cc43)nn2C2CCN(CCN3CCC(CCc4cccc5c4C(=O)N(C4CCC(=O)NC4=O)C5=O)CC3)CC2)C1 (centres unmarked) [P-157, 4-(2-(1-(2-(4-(5-acetyl-3-(7-(difluoromethyl)-6-(1-methyl-1H-pyrazol-4-yl)-3,4-dihydroquinolin-1(2H)-yl)-4,5,6,7-tetrahydro-1H-pyrazolo[4,3-c]pyridin-1-yl)piperidin-1-yl)ethyl)piperidin-4-yl)ethyl)-2-(2,6-dioxopiperidin-3-yl)isoindoline-1,3-dione]	8.49	50 to 80	
CC(=O)N1CCc2c(c(N3CCCc4cc(-c5cnn(C)c5)c(C(F)F)cc43)nn2C2CCN(C(=O)CN3CC(CNc4cccc5c4C(=O)N(C4CCC(=O)NC4=O)C5=O)C3)CC2)C1 (centres unmarked) [P-158, 4-(((1-(2-(4-(5-Acetyl-3-(7-(difluoromethyl)-6-(1-methyl-1H-pyrazol-4-yl)-3,4-dihydroquinolin-1(2H)-yl)-4,5,6,7-tetrahydro-1H-pyrazolo[4,3-c]pyridin-1-yl)piperidin-1-yl)-2-oxoethyl)azetidin-3-yl)methyl)amino)-2-(2,6-dioxopiperidin-3-yl)isoindoline-1,3-dione]	7.05	< 20	
CC(=O)N1CCc2c(c(N3CCCc4cc(-c5cnn(C)c5)c(C(F)F)cc43)nn2C2CCN(C(=O)CCCCCCCCNc3cccc4c3n(C)c(=O)n4C3CCC(=O)NC3=O)CC2)C1 (centres unmarked) [P-160, 3-(4-((9-(4-(5-acetyl-3-(7-(difluoromethyl)-6-(1-methyl-1H-pyrazol-4-yl)-3,4-dihydroquinolin-1(2H)-yl)-4,5,6,7-tetrahydro-1H-pyrazolo[4,3-c]pyridin-1-yl)piperidin-1-yl)-9-oxononyl)amino)-3-methyl-2-oxo-2,3-dihydro-1H-benzo[d]imidazol-1-yl)piperidine-2,6-dione]	9.70	> 80	
CC(=O)N1CCc2c(c(N3CCCc4cc(-c5cnn(C)c5)c(C(F)F)cc43)nn2C2CCN(C(=O)CCCCCCCNc3ccc4c(c3)n(C)c(=O)n4C3CCC(=O)NC3=O)CC2)C1 (centres unmarked) [P-161]	10.00	> 80	
CC(=O)N1CCc2c(c(N3CCCc4cc(-c5cnn(C)c5)c(C(F)F)cc43)nn2C2CCN(C(=O)CCCCCCCCNc3ccc4c(c3)n(C)c(=O)n4C3CCC(=O)NC3=O)CC2)C1 (centres unmarked) [P-162, 3-(5-((9-(4-(5-acetyl-3-(7-(difluoromethyl)-6-(1-methyl-1H-pyrazol-4-yl)-3,4-dihydroquinolin-1(2H)-yl)-4,5,6,7-tetrahydro-1H-pyrazolo[4,3-c]pyridin-1-yl)piperidin-1-yl)-9-oxononyl)amino)-3-methyl-2-oxo-2,3-dihydro-1H-benzo[d]imidazol-1-yl)piperidine-2,6-dione]	9.52	> 80	
CC(=O)N1CCc2c(c(N3CCCc4cc(-c5cnn(C)c5)c(C(F)F)cc43)nn2C2CCN(C(=O)CCCCCCCCn3c(=O)n(C4CCC(=O)NC4=O)c4ccccc43)CC2)C1 (centres unmarked) [P-163, 3-(3-(9-(4-(5-acetyl-3-(7-(difluoromethyl)-6-(1-methyl-1H-pyrazol-4-yl)-3,4-dihydroquinolin-1(2H)-yl)-4,5,6,7-tetrahydro-1H-pyrazolo[4,3-c]pyridin-1-yl)piperidin-1-yl)-9-oxononyl)-2-oxo-2,3-dihydro-1H-benzo[d]imidazol-1-yl)piperidine-2,6-dione]	9.05		> 80
CC(=O)N1CCc2c(c(N3CCCc4cc(-c5cnn(C)c5)c(C(F)F)cc43)nn2C2CCN(C(=O)CCCCCCCCCn3c(=O)n(C4CCC(=O)NC4=O)c4ccccc43)CC2)C1 (centres unmarked) [P-164, 3-(3-(10-(4-(5-acetyl-3-(7-(difluoromethyl)-6-(1-methyl-1H-pyrazol-4-yl)-3,4-dihydroquinolin-1(2H)-yl)-4,5,6,7-tetrahydro-1H-pyrazolo[4,3-c]pyridin-1-yl)piperidin-1-yl)-10-oxodecyl)-2-oxo-2,3-dihydro-1H-benzo[d]imidazol-1-yl)piperidine-2,6-dione]	9.00	> 80	
CC(=O)N1CCc2c(c(N3CCCc4cc(-c5cnn(C)c5)c(C(F)F)cc43)nn2C2CCN(Cc3ccc(COc4cccc5c4CN(C4CCC(=O)NC4=O)C5=O)cc3)CC2)C1 (centres unmarked) [P-166, 3-(4-((4-((4-(5-acetyl-3-(7-(difluoromethyl)-6-(1-methyl-1H-pyrazol-4-yl)-3,4-dihydroquinolin-1(2H)-yl)-4,5,6,7-tetrahydro-1H-pyrazolo[4,3-c]pyridin-1-yl)piperidin-1-yl)methyl)benzyl)oxy)-1-oxoisoindolin-2-yl)piperidine-2,6-dione]	9.52	> 80	

Second part, led by results:

pIC50 (LNCaP cells)	inhibition at 0.01 µM (P300; [1]) [%]	Structure (SMILES)	inhibition at 0.01 µM (P300) [%]
8.12	> 80	CC(=O)N1CCc2c(c(N3CCCc4cc(-c5cnn(C)c5)c(C(F)F)cc43)nn2C2CCN(C(=O)CCCCCNc3cccc4nnn(C5CCC(=O)NC5=O)c(=O)c34)CC2)C1 (centres unmarked) [P-151, 3-(5-((6-(4-(5-acetyl-3-(7-(difluoromethyl)-6-(1-methyl-1H-pyrazol-4-yl)-3,4-dihydroquinolin-1(2H)-yl)-4,5,6,7-tetrahydro-1H-pyrazolo[4,3-c]pyridin-1-yl)piperidin-1-yl)-6-oxohexyl)amino)-4-oxobenzo[d][1,2,3]triazin-3(4H)-yl)piperidine-2,6-dione]	
6.77	< 20	CC(=O)N1CCc2c(c(N3CCCc4cc(-c5cnn(C)c5)c(C(F)F)cc43)nn2C2CCN(C(=O)CCCCCCNc3cccc4nc(C)n(C5CCC(=O)NC5=O)c(=O)c34)CC2)C1 (centres unmarked) [P-152, 3-(5-((7-(4-(5-Acetyl-3-(7-(difluoromethyl)-6-(1-methyl-1H-pyrazol-4-yl)-3,4-dihydroquinolin-1(2H)-yl)-4,5,6,7-tetrahydro-1H-pyrazolo[4,3-c]pyridin-1-yl)piperidin-1-yl)-7-oxoheptyl)amino)-2-methyl-4-oxoquinazolin-3(4H)-yl)piperidine-2,6-dione]	
8.43	> 80	CC(=O)N1CCc2c(c(N3CCCc4cc(-c5cnn(C)c5)c(C(F)F)cc43)nn2C2CCN(C(=O)CCCCCCNc3cccc4nnn(C5CCC(=O)NC5=O)c(=O)c34)CC2)C1 (centres unmarked) [P-153, 3-(5-((7-(4-(5-acetyl-3-(7-(difluoromethyl)-6-(1-methyl-1H-pyrazol-4-yl)-3,4-dihydroquinolin-1(2H)-yl)-4,5,6,7-tetrahydro-1H-pyrazolo[4,3-c]pyridin-1-yl)piperidin-1-yl)-7-oxoheptyl)amino)-4-oxobenzo[d] [1,2,3]triazin-3 (4H)-yl)piperidine-2,6-dione]	
< 6.00	20 to 50	CC(=O)N1CCc2c(c(N3CCCc4cc(-c5cnn(C)c5)c(C(F)F)cc43)nn2C2CCN(C(=O)CCCCNc3cccc4nc(C)n(C5CCC(=O)NC5=O)c(=O)c34)CC2)C1 (centres unmarked) [P-154, 3-(5-((5-(4-(5-Acetyl-3-(7-(difluoromethyl)-6-(1-methyl-1H-pyrazol-4-yl)-3,4-dihydroquinolin-1(2H)-yl)-4,5,6,7-tetrahydro-1H-pyrazolo[4,3-c]pyridin-1-yl)piperidin-1-yl)-5-oxopentyl)amino)-2-methyl-4-oxoquinazolin-3(4H)-yl)piperidine-2,6-dione]	
7.65	50 to 80	CC(=O)N1CCc2c(c(N3CCCc4cc(-c5cnn(C)c5)c(C(F)F)cc43)nn2C2CCN(C(=O)CCCCNc3cccc4nnn(C5CCC(=O)NC5=O)c(=O)c34)CC2)C1 (centres unmarked) [P-155, 3-(5-((5-(4-(5-acetyl-3-(7-(difluoromethyl)-6-(1-methyl-1H-pyrazol-4-yl)-3,4-dihydroquinolin-1(2H)-yl)-4,5,6,7-tetrahydro-1H-pyrazolo[4,3-c]pyridin-1-yl)piperidin-1-yl)-5-oxopentyl)amino)-4-oxobenzo[d][1,2,3]triazin-3(4H)-yl)piperidine-2,6-dione]	
9.70	> 80	CC(=O)N1CCc2c(c(N3CCCc4cc(-c5cnn(C)c5)c(C(F)F)cc43)nn2C2CCN(C(=O)CCCCCCCNc3cccc4c3n(C)c(=O)n4C3CCC(=O)NC3=O)CC2)C1 (centres unmarked) [P-159, 3-(4-((8-(4-(5-acetyl-3-(7-(difluoromethyl)-6-(1-methyl-1H-pyrazol-4-yl)-3,4-dihydroquinolin-1(2H)-yl)-4,5,6,7-tetrahydro-1H-pyrazolo[4,3-c]pyridin-1-yl)piperidin-1-yl)-8-oxooctyl)amino)-3-methyl-2-oxo-2,3-dihydro-1H-benzo[d]imidazol-1-yl)piperidine-2,6-dione]	
6.91	50 to 80	CC(=O)N1CCc2c(c(N3CCCc4cc(-c5cnn(C)c5)c(C(F)F)cc43)nn2C2CCN(C(=O)CCCCCNc3cccc4nc(C)n(C5CCC(=O)NC5=O)c(=O)c34)CC2)C1 (centres unmarked) [P-165, 3-(5-((6-(4-(5-Acetyl-3-(7-(difluoromethyl)-6-(1-methyl-1H-pyrazol-4-yl)-3,4-dihydroquinolin-1(2H)-yl)-4,5,6,7-tetrahydro-1H-pyrazolo[4,3-c]pyridin-1-yl)piperidin-1-yl)-6-oxohexyl)amino)-2-methyl-4-oxoquinazolin-3(4H)-yl)piperidine-2,6-dione]	
